Source: patent US9796711B2, “Substituted pyrazolo[3,4-b]pyridin-6-carboxylic acids and method of use” (AbbVie S.àr.l., priority 2015, dated 2017)

Target: T1, CFTR ΔF508 (Homo sapiens, UniProt P13569, DEL508-508)
T1 construct: bronchial epithelial cells isolated from CF patients homozygous for the CFTR ΔF508 mutation; McGill University; Asterand; University of North Carolina hAEC-CF; host or cells: primary human bronchial epithelial cells from CF patients homozygous for ΔF508
Test: Chronic TECC assay on primary bronchial epithelial cells (corrector, co-corrector and potentiator)
Format: cell-based
Conditions: chronic TECC, AUC = full area under the curve upon forskolin stimulation, with co-corrector and potentiator, 24 hours; for EC50: read-out: EC50 (nM) (AUC)
Procedure: Primary Bronchial Epithelial Cells Protocol
The TECC (Tranepithelial Clamp Circuit, EP-design) assay measures the functionality of the cystic fibrosis Transmembrane Conductance regulator (CFTR) by measuring the short circuit current (Isc) generated over the basolateral and apical membrane of lung epithelial cells. In TECC the transepithelial potential PD and transepithelial resistance (Rt)) are measured in an open circuit and transformed to Ieq using Ohm's law. 24 Wells can be measured simultaneously allowing a higher throughput compared to Ussing chambers.
For this purpose, bronchial epithelial cells isolated from CF patients homozygous for the CFTR ΔF508 mutation (hAEC-CF, Epithelix, Geneva, Switzerland; McGill University, Montreal, Qc; Asterand, Detroit, Mich.; University of North Carolina, Chapel Hill, N.C.) are plated on type IV collagen-coated Transwell® supports (Costar). Human airway epithelia are generated by provision of an air-liquid interface for 21 days to form well-differentiated polarized cultures that resemble in vivo pseudo-stratified ciliated epithelium (Fulcher, M. L., Gabriel, S., Burns, K. A., Yankaskas, J. R., Randell, S. H., 2005. Well-differentiated human airway epithelial cell cultures. Methods Mol. Med. 107, 183-206). The differentiated cells are treated with test corrector compound(s) (corrector alone or in combination with co-corrector, 4-[(2R,4R)-4-({[1-(2,2-difluoro-1,3-benzodioxol-5-yl)cyclopropyl]carbonyl}amino)-7-methoxy-3,4-dihydro-2H-chromen-2-yl]benzoic acid (G924806/A-1618261) (“acute”) or test corrector compounds, co-corrector and potentiator, N-(3-carbamoyl-5,5,7,7-tetramethyl-4,7-dihydro-5H-thieno[2,3-c]pyran-2-yl)-1H-pyrazole-5-carboxamide GLPG1837, (“chronic”) for 24 hours basolaterally to allow sufficient expression of properly folded CFTR protein on the membrane. All compound plates contained negative controls (DMSO) and positive controls (0.15 μM, 4-[(2R,4R)-4-({[1-(2,2-difluoro-1,3-benzodioxol-5-yl)cyclopropyl]carbonyl}amino)-7-(difluoromethoxy)-3,4-dihydro-2H-chromen-2-yl]benzoic acid).
For electrophysiological recording of the “chronic” experiments, the human airway epithelia are mounted in the TECC heating plate for electrophysiological measurement and kept at 37° C. The epithelia are bathed in a NaCl-Ringer solution (120 mM NaCl, 25 mM NaHCO3, 1.2 mM CaCl2, 1.2 mM MgCl2, 0.8 mM KH2PO4, 0.8 mM K2HPO4, pH 7.4, 5 mM glucose) on both the basolateral and apical sides. Test compounds (corrector, co-corrector, 4-[(2R,4R)-4-({[1-(2,2-difluoro-1,3-benzodioxol-5-yl)cyclopropyl]carbonyl}amino)-7-(difluoromethoxy)-3,4-dihydro-2H-chromen-2-yl]benzoic acid, and potentiator, N-(3-carbamoyl-5,5,7,7-tetramethyl-4,7-dihydro-5H-thieno[2,3-c]pyran-2-yl)-1H-pyrazole-5-carboxamide), are re-added to the recording solution prior to measurement. Apical amiloride is used to inhibit the endogenous ENaC currents while forskolin is applied on both apical and basolateral side to stimulate CFTR. Measurements are done during a 20 minute timeframe with recordings every 2 minutes. The increase in Ieq is used as a measure for the increased CFTR activity, EC50 values can be generated by measuring impact of different concentrations of compound on Ieq on primary cells, for this purpose each transwell is treated with a different compound concentration. Inhibitor-172, an inhibitor specific for CFTR, is used to test the specificity of the tested compounds. Raw data were normalized to percentage activity values using the equation: 100×(Sample−Negative control)/(Positive control−Negative Control).

T1 sequence (P13569 with tags, fused parts or gaps DEL508-508): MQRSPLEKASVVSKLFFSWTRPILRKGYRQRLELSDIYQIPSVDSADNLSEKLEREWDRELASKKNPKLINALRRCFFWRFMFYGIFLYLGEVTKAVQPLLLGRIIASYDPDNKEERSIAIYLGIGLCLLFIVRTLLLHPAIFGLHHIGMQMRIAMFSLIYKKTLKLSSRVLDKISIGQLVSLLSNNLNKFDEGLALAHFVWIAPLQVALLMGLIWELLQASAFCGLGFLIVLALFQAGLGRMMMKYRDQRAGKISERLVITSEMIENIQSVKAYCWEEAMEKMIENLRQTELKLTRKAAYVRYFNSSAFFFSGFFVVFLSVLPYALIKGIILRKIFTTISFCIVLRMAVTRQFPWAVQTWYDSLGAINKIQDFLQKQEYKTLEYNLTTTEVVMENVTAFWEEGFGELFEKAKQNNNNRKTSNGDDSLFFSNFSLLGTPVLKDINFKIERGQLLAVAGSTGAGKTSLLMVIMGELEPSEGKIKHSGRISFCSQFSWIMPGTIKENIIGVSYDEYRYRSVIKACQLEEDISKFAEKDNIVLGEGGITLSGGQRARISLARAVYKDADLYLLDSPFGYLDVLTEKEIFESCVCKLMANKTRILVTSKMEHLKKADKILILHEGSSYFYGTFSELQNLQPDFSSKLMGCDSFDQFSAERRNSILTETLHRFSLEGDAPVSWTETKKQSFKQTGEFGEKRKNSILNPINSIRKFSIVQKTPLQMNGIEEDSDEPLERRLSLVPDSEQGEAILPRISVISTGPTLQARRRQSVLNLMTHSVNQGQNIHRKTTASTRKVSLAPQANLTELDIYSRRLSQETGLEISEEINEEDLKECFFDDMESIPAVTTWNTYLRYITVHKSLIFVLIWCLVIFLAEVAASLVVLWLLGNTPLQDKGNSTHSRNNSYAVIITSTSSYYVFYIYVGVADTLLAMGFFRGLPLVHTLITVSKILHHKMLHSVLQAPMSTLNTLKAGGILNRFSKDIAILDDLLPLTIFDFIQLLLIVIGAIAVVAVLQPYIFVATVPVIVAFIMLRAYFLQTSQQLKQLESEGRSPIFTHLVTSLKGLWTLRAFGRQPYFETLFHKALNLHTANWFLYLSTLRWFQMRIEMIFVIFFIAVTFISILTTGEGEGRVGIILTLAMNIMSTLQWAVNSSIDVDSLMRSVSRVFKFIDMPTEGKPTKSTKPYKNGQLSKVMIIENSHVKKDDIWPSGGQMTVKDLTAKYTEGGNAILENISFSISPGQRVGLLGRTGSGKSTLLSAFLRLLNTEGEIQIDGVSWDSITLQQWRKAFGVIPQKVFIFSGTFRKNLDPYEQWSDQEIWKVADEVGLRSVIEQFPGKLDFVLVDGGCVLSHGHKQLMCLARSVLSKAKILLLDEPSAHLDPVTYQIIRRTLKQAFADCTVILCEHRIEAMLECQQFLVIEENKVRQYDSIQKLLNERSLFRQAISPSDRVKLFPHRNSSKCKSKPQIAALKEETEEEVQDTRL

Row | Compound | EC50 | % Activity at 1 μM (AUC**) | % Activity at 3 μM (AUC)
1 | CN1CCC2(CC1)CCN(c1cc(C(=O)O)nc3c1c(C1CCC1)nn3-c1ccccc1)CC2 [compound 699, 3-cyclobutyl-4-(9-methyl-3,9-diazaspiro[5.5]undecan-3-yl)-1-phenyl-1H-pyrazolo[3,4-b]pyridine-6-carboxylic acid] | 162 nM |  | 
2 | O=C(O)c1cc(N2CCC(N3CCN(C4CC4)CC3)CC2)c2c(C3CCC3)nn(-c3ccccc3)c2n1 [compound 738, 3-cyclobutyl-4-[4-(4-cyclopropylpiperazin-1-yl)piperidin-1-yl]-1-phenyl-1H-pyrazolo[3,4-b]pyridine-6-carboxylic acid] | 23 nM | 230% | 
3 | CC(C)c1nn(-c2ccc(F)cc2)c2nc(C(=O)O)cc(N3CCC(N4CCN(C5CC5)CC4)CC3)c12 [compound 754, 4-[4-(4-cyclopropylpiperazin-1-yl)piperidin-1-yl]-1-(4-fluorophenyl)-3-(propan-2-yl)-1H-pyrazolo[3,4-b]pyridine-6-carboxylic acid] |  | 190% | 
4 | CC(C)c1nn(-c2ccc(F)cc2)c2nc(C(=O)O)cc(N3CCC(C(C)N4CCCC4)CC3)c12 (stereo not shown) [compound 789, 1-(4-fluorophenyl)-3-(propan-2-yl)-4-{4-[1-(pyrrolidin-1-yl)ethyl]piperidin-1-yl}-1H-pyrazolo[3,4-b]pyridine-6-carboxylic acid] |  | 235% | 
5 | CC(C)c1nn(-c2ccc(F)cc2)c2nc(C(=O)O)cc(N3CCC(CN4CCCCC4)CC3)c12 [compound 790, 1-(4-fluorophenyl)-4-{4-[(piperidin-1-yl)methyl]piperidin-1-yl}-3-(propan-2-yl)-1H-pyrazolo[3,4-b]pyridine-6-carboxylic acid] | 120 nM | 220% | 
6 | CO[C@@H]1CCN(CC2CCN(c3cc(C(=O)O)nc4c3c(C3CCC3)nn4-c3ccccc3)CC2)C1 [compound 803, 3-cyclobutyl-4-(4-{[(3R)-3-methoxypyrrolidin-1-yl]methyl}piperidin-1-yl)-1-phenyl-1H-pyrazolo[3,4-b]pyridine-6-carboxylic acid] |  | 161.4501% | 
7 | COC[C@H]1CCN(CC2CCN(c3cc(C(=O)O)nc4c3c(C3CCC3)nn4-c3ccccc3)CC2)C1 [compound 804, 3-cyclobutyl-4-(4-{[(3S)-3-(methoxymethyl)pyrrolidin-1-yl]methyl}piperidin-1-yl)-1-phenyl-1H-pyrazolo[3,4-b]pyridine-6-carboxylic acid] |  | 290% | 
8 | O=C(O)c1cc(N2CCC(CCN3CCOCC3)CC2)c2c(C3CCC3)nn(-c3ccc(F)cc3)c2n1 [compound 810, 3-cyclobutyl-1-(4-fluorophenyl)-4-{4-[2-(morpholin-4-yl)ethyl]piperidin-1-yl}-1H-pyrazolo[3,4-b]pyridine-6-carboxylic acid] |  | 191.4768% | 
9 | O=C(O)c1cc(N2CCC(N3CCC(F)CC3)CC2)c2c(C3CCC3)nn(-c3ccc(F)cc3)c2n1 [compound 849, 3-cyclobutyl-4-(4-fluoro[1,4′-bipiperidin]-1′-yl)-1-(4-fluorophenyl)-1H-pyrazolo[3,4-b]pyridine-6-carboxylic acid] | 15.6 nM | 256.6667% | 
10 | COCCN1CCN(c2ccc(-c3cc(C(=O)O)nc4c3c(C3CCC3)nn4C3CCCCC3)cn2)CC1 [compound 878, 3-cyclobutyl-1-cyclohexyl-4-{6-[4-(2-methoxyethyl)piperazin-1-yl]pyridin-3-yl}-1H-pyrazolo[3,4-b]pyridine-6-carboxylic acid] |  | 170% | 
11 | O=C(O)c1cc(N2CCC(N3CCN(C4CC4)CC3)CC2)c2c(C3CCC3)nn(-c3ccc(F)cc3)c2n1 [compound 886, 3-cyclobutyl-4-[4-(4-cyclopropylpiperazin-1-yl)piperidin-1-yl]-1-(4-fluorophenyl)-1H-pyrazolo[3,4-b]pyridine-6-carboxylic acid] |  | 282.5409% | 
12 | O=C(O)c1cc(N2CCC3(CC2)CCN(C2CC2)CC3)c2c(C3CCC3)nn(-c3ccc(F)cc3)c2n1 [compound 887, 3-cyclobutyl-4-(9-cyclopropyl-3,9-diazaspiro[5.5]undecan-3-yl)-1-(4-fluorophenyl)-1H-pyrazolo[3,4-b]pyridine-6-carboxylic acid] | 1340 nM | 273.3871% | 
13 | CC(C)N1CCC2(CCN(c3cc(C(=O)O)nc4c3c(C3CCC3)nn4-c3ccc(F)cc3)CC2)CC1 [compound 890, 3-cyclobutyl-1-(4-fluorophenyl)-4-[9-(propan-2-yl)-3,9-diazaspiro[5.5]undecan-3-yl]-1H-pyrazolo[3,4-b]pyridine-6-carboxylic acid] |  | 366.6667% | 
14 | COC1CCN(C2CCN(c3cc(C(=O)O)nc4c3c(C3CCC3)nn4-c3ccc(F)cc3)CC2)CC1 [compound 892, 3-cyclobutyl-1-(4-fluorophenyl)-4-(4-methoxy[1,4′-bipiperidin]-1′-yl)-1H-pyrazolo[3,4-b]pyridine-6-carboxylic acid] | 900 nM | 188.3291% | 
15 | O=C(O)c1cc(N2CCC3(CC2)CCN(C2CCC2)CC3)c2c(C3CCC3)nn(-c3ccc(F)cc3)c2n1 [compound 894, 3-cyclobutyl-4-(9-cyclobutyl-3,9-diazaspiro[5.5]undecan-3-yl)-1-(4-fluorophenyl)-1H-pyrazolo[3,4-b]pyridine-6-carboxylic acid] |  | 300% | 
16 | COCCN1CCC2(CC1)CCN(c1cc(C(=O)O)nc3c1c(C1CCC1)nn3-c1ccc(F)cc1)CC2 [compound 897, 3-cyclobutyl-1-(4-fluorophenyl)-4-[9-(2-methoxyethyl)-3,9-diazaspiro[5.5]undecan-3-yl]-1H-pyrazolo[3,4-b]pyridine-6-carboxylic acid] |  | 375% | 
17 | O=C(O)c1cc(N2CCC(N3CCC(O)CC3)CC2)c2c(C3CCC3)nn(-c3ccc(F)cc3)c2n1 [compound 898, 3-cyclobutyl-1-(4-fluorophenyl)-4-(4-hydroxy[1,4′-bipiperidin]-1′-yl)-1H-pyrazolo[3,4-b]pyridine-6-carboxylic acid] | 2640 nM |  | 150.7853%
18 | O=C(O)c1cc(N2CCC(N3CCOCC3)CC2)c2c(C3CCC3)nn(-c3cccc(OC(F)F)c3)c2n1 [compound 910, 3-cyclobutyl-1-[3-(difluoromethoxy)phenyl]-4-[4-(morpholin-4-yl)piperidin-1-yl]-1H-pyrazolo[3,4-b]pyridine-6-carboxylic acid] |  |  | 531.5026%
19 | CC(F)(F)c1cccc(-n2nc(C3CCC3)c3c(N4CCC(N5CCOCC5)CC4)cc(C(=O)O)nc32)c1 [compound 915] |  |  | 423.3333%
20 | CC(C)Oc1cccc(-n2nc(C3CCC3)c3c(N4CCC(N5CCOCC5)CC4)cc(C(=O)O)nc32)n1 [compound 924, 3-cyclobutyl-4-[4-(morpholin-4-yl)piperidin-1-yl]-1-{6-[(propan-2-yl)oxy]pyridin-2-yl}-1H-pyrazolo[3,4-b]pyridine-6-carboxylic acid] | 10.6 nM |  | 235.9027%
21 | CC(C)Oc1nn(C2CCCCC2)c2nc(C(=O)O)cc(-c3ccc(CN4CC(N(C)C)C4)cc3)c12 [compound 927, 1-cyclohexyl-4-(4-{[3-(dimethylamino)azetidin-1-yl]methyl}phenyl)-3-[(propan-2-yl)oxy]-1H-pyrazolo[3,4-b]pyridine-6-carboxylic acid] | 1940 nM |  | 
